The values below come from patent US8901138B2, “Sulfoximine substituted quinazolines for pharmaceutical compositions” (Boehringer Ingelheim International GmbH, priority 2012, dated 2014).

A word on the IC50: it is the concentration that inhibits the measured activity by half.

This test deals with T1, MNK2a (Homo sapiens, UniProt Q9HBH9).
T1 construct: made in house
T1 sequence (Q9HBH9 whole entry): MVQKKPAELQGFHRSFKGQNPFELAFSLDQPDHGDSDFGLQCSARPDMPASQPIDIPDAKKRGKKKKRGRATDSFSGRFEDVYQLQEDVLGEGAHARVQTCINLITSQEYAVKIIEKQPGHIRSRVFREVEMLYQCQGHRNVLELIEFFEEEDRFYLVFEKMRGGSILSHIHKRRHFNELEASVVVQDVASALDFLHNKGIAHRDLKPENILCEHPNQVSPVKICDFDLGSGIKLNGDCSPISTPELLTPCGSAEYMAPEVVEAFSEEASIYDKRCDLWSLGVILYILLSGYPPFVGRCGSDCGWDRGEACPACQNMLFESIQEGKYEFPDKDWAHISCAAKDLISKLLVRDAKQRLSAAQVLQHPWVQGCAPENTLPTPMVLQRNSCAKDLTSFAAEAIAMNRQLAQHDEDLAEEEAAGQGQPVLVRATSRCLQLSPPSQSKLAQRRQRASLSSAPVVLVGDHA
As to the kind of experiment: MNK2a in vitro kinase assay (assay 1), ADP-Glo. The class given is biochemical. The settings on record: preactivated GST-MNK2a, 20 μM ATP, read-out: MNK2 IC50. On the procedure:
A. MNK2a In Vitro Kinase Assay (Assay 1)
ASSAY SETUP: The inhibition of kinase activity of MNK2a was assessed using preactivated GST-MNK2a. The white, 384-well OptiPlate F plates were purchased from Perkin Elmer. The ADP-Glo Kinase Assay (including ultra pure ATP) was purchased from Promega (V9103). Activated MNK2a was obtained as described in WO2011/104340. The unlabeled eIF4E peptide (NH2-[…]—CONH2) (SEQ ID NO: 1), differing from Seq. ID No. 5 of WO 2011/104340 by the C-terminal —CONH2 group, was purchased from Thermo Fisher Scientific. All other materials were of highest grade commercially available. Compounds are tested in either serial dilutions or single dose concentrations. The compound stock solutions are 10 mM in 100% DMSO The serial compound dilutions are prepared in 100% DMSO followed by 1:27.3 intermediate dilution in assay buffer. The final DMSO concentration in assay will be <3%. In the 384-well plates 3 μl of test compound from the intermediate dilution is mixed with 4 μl of the activated MNK2 enzyme (final concentration of 10 nM) and 4 μl of the peptide (final concentration of 25 μM)/ultra pure ATP (final concentration of 20 μM), all dissolved in assay buffer. This step is followed by an incubation time of 90 min, then 10 μl of ADP Glo reagent are added, followed by 40 min of incubation. Then 20 μl of kinase detection reagent are admixed. The plates are sealed and after an incubation period of 30 min, the luminescence signal is measured in an Envision reader to determine the amount of produced ADP. All incubation steps are performed at room temperature. The assay buffer consists of 20 mM HEPES, 2 mM DTT, 0.01% BSA, 20 mM MgCl2 and 0.1% Pluronic F-127.
Each assay microtiter plate contains wells with vehicle controls instead of compound (1% DMSO in water) as reference for the high signal (100% CTL, high signal), and wells containing a potent MNK2 inhibitor (final 20 μM, 1% DMSO) as reference for low signal (0% CTL, low signal).
The luminescent signal generated is proportional to the ADP concentration produced and is correlated with activated MNK2 activity. The analysis of the data is performed by the calculation of the percentage of ATP consumption of activated MNK2 in the presence of the test compound compared to the consumption of ATP in the presence of activated MNK2 without compound. (RLU(sample)−RLU(low control))*100/(RLU(high value)−RLU(low control)) [RLU=relative luminescence units]
An inhibitor of the MNK2 enzyme will give values between 100% CTL (no inhibition) and 0% CTL (complete inhibition). Values of more than 100% CTL are normally related to compound/sample specific physico-chemical properties (e.g. solubility, light absorbance, fluorescence).
IC50 values based on dose response curves are calculated with the AssayExplorer software.
Regarding `Cc1cc(N=S(C)(C)=O)cc2ncnc(Nc3ccc(F)cc3OC3CCC(O)C3)c12` (racemic) [Example 4.3], the concentration for half-maximal inhibition (IC50) was 3 nM. With `CS(C)(=O)=Nc1cc(Cl)c2c(Nc3ccc(F)cc3O[C@@H]3CO[C@H]4[C@@H]3OC[C@@H]4O)ncnc2c1` [Example 1.3], the IC50 stood at 1 nM. As to `CS(C)(=O)=Nc1cc(C(F)(F)F)c2c(Nc3ccc(F)cc3O[C@H]3CCOC3)ncnc2c1` [Example 1.5], the IC50 was 3 nM. The same measure for `CS(C)(=O)=Nc1cc(Cl)c2c(Nc3ccc(F)cc3O[C@@H]3CO[C@H]4[C@@H]3OC[C@H]4O)ncnc2c1` [Example 1.6]: 1 nM; for `O=S1(=Nc2cc(Cl)c3c(Nc4ccc(F)cc4O[C@@H]4CO[C@@H]5CCO[C@@H]54)ncnc3c2)CCCC1` [Example 1.7]: 1 nM; for `O=S1(=Nc2cc(Cl)c3c(Nc4ccc(F)cc4O[C@H]4CCOC4)ncnc3c2)CCCC1` [Example 1.8]: 1 nM. In the case of `CS(C)(=O)=Nc1cc(Br)c2c(Nc3ccc(F)cc3O[C@H]3CCOC3)ncnc2c1` [Example 1.11] it was 1 nM; in that of `CO[C@@H]1CO[C@H]2[C@@H]1OC[C@H]2Oc1cc(F)ccc1Nc1ncnc2cc(N=S3(=O)CCCC3)cc(Cl)c12` [Example 1.13], 1 nM; in that of `CS(C)(=O)=Nc1cc(Cl)c2c(Nc3ccc(F)cc3O[C@H]3CCOC3)ncnc2c1` [Example 1.14], 1 nM.

On to `CS(C)(=O)=Nc1cc(Cl)c2c(Nc3cccnc3O[C@H]3CC[C@H](O)CC3)ncnc2c1` [Example 1.16], for which the IC50 is 1 nM.

`Cc1cc(N=S(C)(C)=O)cc2ncnc(Nc3ccc(F)cc3O[C@@H]3CC[C@H]3O)c12` [Example 1.34]: the IC50 was determined as 3 nM. Regarding `Cc1cc(N=S(C)(C)=O)cc2ncnc(Nc3ccc(F)cc3O[C@@H]3CCCC[C@@H]3O)c12` [Example 1.39], the IC50 came out at 7 nM.

Consider `Cc1cc(N=S(C)(C)=O)cc2ncnc(Nc3ccc(F)cc3O[C@@H]3CCOC3)c12` [Example 2.5], for which the IC50 was 3 nM.

Regarding `COc1cc(N=S2(=O)CCCC2)cc2ncnc(Nc3ccc(F)cc3O[C@@H]3CO[C@H]4[C@@H]3OC[C@H]4OC)c12` [Example 2.9], the half-inhibitory concentration (IC50) amounted to 1 nM. Consider `COc1cc(N=S2(=O)CCCC2)cc2ncnc(Nc3cccnc3O[C@H]3CC[C@H](O)CC3)c12` [Example 2.18], for which the IC50 came to 1 nM. Take `CCS(C)(=O)=Nc1cc(C)c2c(Nc3ccc(F)cc3O[C@H]3CC[C@H](O)CC3)ncnc2c1` (stereo partly shown) [Example 2.22]: the IC50 was 3 nM. As for `Cc1cc(N=S2(=O)CCCC2)cc2ncnc(Nc3ccc(F)cc3OC3COCCOC3)c12` [Example 2.25], the IC50 worked out at 2 nM. With `CS(C)(=O)=Nc1cc(F)c2c(Nc3ccc(F)cc3OC3CCCC3)ncnc2c1` [Example 2.29], the IC50 came out at 3 nM. `Cc1cc(N=S2(=O)CCCC2)cc2ncnc(Nc3ccc(F)cc3O[C@@H]3CO[C@H]4[C@@H]3OC[C@H]4O)c12` [Example 2.36]: the IC50 was determined as 2 nM. With `Cc1cc(N=S(C)(C)=O)cc2ncnc(Nc3ccc(F)cc3O[C@@H]3CO[C@@H]4CCO[C@@H]43)c12` [Example 2.39], the IC50 is 2 nM.

Consider `Cc1cc(N=S2(=O)CCCC2)cc2ncnc(Nc3ccc(F)cc3O[C@@H]3CO[C@@H]4CCO[C@@H]43)c12` [Example 2.42], for which the IC50 was determined as 1 nM. For `CO[C@@H]1CO[C@H]2[C@@H]1OC[C@H]2Oc1cc(F)ccc1Nc1ncnc2cc(N=S3(=O)CCCC3)cc(C)c12` [Example 2.43], the 50% inhibitory concentration (IC50) turned out to be 1 nM. In the case of `CO[C@H]1CC[C@H](Oc2cc(F)ccc2Nc2ncnc3cc(N=S4(=O)CCCC4)cc(C)c23)CC1` [Example 2.48] it was 2 nM. The same measure for `Cc1cc(N=S(C)(C)=O)cc2ncnc(Nc3ccc(F)cc3OC3COCCOC3)c12` [Example 2.60]: 3 nM. `CO[C@H]1CC[C@H](Oc2ncccc2Nc2ncnc3cc(N=S(C)(C)=O)cc(C)c23)CC1` [Example 2.68]: the IC50 stood at 3 nM.

As to `Cc1cc(N=S2(=O)CCCC2)cc2ncnc(Nc3cccnc3O[C@H]3CC[C@H](O)CC3)c12` [Example 2.69], the IC50 was determined as 2 nM. For the molecule `Cc1cc(N=S(C)(C)=O)cc2ncnc(Nc3ccc(F)cc3OC3CCCC3)c12` [Example 2.70], the 50% inhibitory concentration (IC50) amounted to 2 nM. The same measure for `Cc1cc(N=S(C)(C)=O)cc2ncnc(Nc3ccc(F)cc3O[C@H]3CC[C@H](O)CC3)c12` [Example 2.71]: 3 nM. As to `Cc1cc(N=S(C)(C)=O)cc2ncnc(Nc3ccc(F)cc3O[C@H]3CC[C@@](C)(O)CC3)c12` [Example 2.74], the IC50 was 3 nM.

Regarding `Cc1cc(N=S2(=O)CCCCC2)cc2ncnc(Nc3ccc(F)cc3O[C@H]3CCOC3)c12` [Example 2.78], the IC50 is 3 nM. In the case of `Cc1cc(N=S2(=O)CCCC2)cc2ncnc(Nc3ccc(F)cc3O[C@@H]3CO[C@H]4[C@@H]3OC[C@@H]4O)c12` [Example 2.83] it was 1 nM; in that of `CS(C)(=O)=Nc1cc(F)c2c(Nc3ccc(F)cc3O[C@H]3CCOC3)ncnc2c1` [Example 2.89], 3 nM; in that of `COc1cc(N=S2(=O)CCCC2)cc2ncnc(Nc3ccc(F)cc3O[C@H]3CC[C@H](O)CC3)c12` [Example 2.90], 2 nM. In the case of `Cc1cc(N=S2(=O)CCC(O)C2)cc2ncnc(Nc3ccc(F)cc3O[C@H]3CCOC3)c12` (stereo partly shown) [Example 2.93] it was 4 nM; in that of `Cc1cc(N=S(C)(=O)c2ccncc2)cc2ncnc(Nc3ccc(F)cc3O[C@@H]3CO[C@@H]4CCO[C@@H]43)c12` (stereo partly shown) [Example 2.96], 4 nM; in that of `COC1CS(=O)(=Nc2cc(C)c3c(Nc4ccc(F)cc4O[C@@H]4CO[C@@H]5CCO[C@@H]54)ncnc3c2)C1` (stereo partly shown) [Example 2.105], 2 nM.

As for `Cc1cc(N=S(C)(C)=O)cc2ncnc(Nc3ccc(F)cc3O[C@H]3C[C@H](N)C3)c12` [Example 3.14], the IC50 came out at 2 nM. Consider `Cc1cc(N=S2(=O)CCCC2)cc2ncnc(Nc3ccc(F)cc3OC3CCc4ccccc43)c12` (stereo not shown) [Example 4.6], for which the IC50 was found to be 3 nM. As for `COc1cc(N=S(C)(C)=O)cc2ncnc(Nc3ccc(F)cc3O[C@H]3CCOC3)c12` [Example 5.2], the IC50 turned out to be 2 nM. In the case of `Cc1cc(N=S2(=O)CCCC2)cc2ncnc(Nc3ccc(F)cc3O[C@@H]3CCCN(S(C)(=O)=O)C3)c12` [Example 6.3] it was 2 nM.

`Cc1cc(N=S2(=O)CCCC2)cc2ncnc(Nc3ccc(F)cc3O[C@@H]3CCN(CC(F)F)C3)c12` [Example 6.4]: the half-maximal inhibitory concentration (IC50) came to 2 nM. In the case of `Cc1cc(N=S(C)(C)=O)cc2ncnc(Nc3ccc(F)cc3O[C@@H]3CCN(CC(F)F)C3)c12` [Example 6.14] it was 3 nM; in that of `CCc1cc(N=S(C)(C)=O)cc2ncnc(Nc3ccc(F)cc3O[C@H]3CCOC3)c12` [Example 7.8], 9 nM.
